Some test systems named below: A498; A549; COLO 205; DU-145; HT-29; Hs-578T; IGROV-1; MCF7; NCI-H460; OVCAR-3; OVCAR-4; PC-3; RXF 393; SF-295; SK-OV-3; SNB-19; SW-620; UACC-257; UO-31; HL-60.
Common to all, as to assay: inhibition of tumour cell growth, NCI panel, 48 h

Each structure is given as a SMILES string.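 Test compounds were applied to cells in 96-well plates for 48 hours at 5 doses. GI50 is the concentration that inhibits growth by half.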 Activity calls are given as the source filed them. Rule as the data show it: active = GI50 up to about 1.1 µM and inactive = higher.

As for `O=C(O)c1ccccc1-c1ccccc1C(=O)Nc1ccc2c(c1)Cc1ccccc1-2`, the GI50 in the experiment with A498 was 19.4 µM (inactive); in the experiment with A549, 29.2 µM (inactive); in the experiment on COLO 205 it was 17.2 µM (inactive); in the experiment with DU-145, 38.8 µM (inactive); with HT-29 it was 25.5 µM (inactive); in the experiment on Hs-578T it was 48.5 µM (inactive). The GI50 in the experiment with IGROV-1 was 49.3 µM (inactive); in the experiment on MCF7 it was 28.1 µM (inactive); in the experiment on NCI-H460, 19.2 µM (inactive); with OVCAR-3 it was 25.3 µM (inactive); with OVCAR-4, 60.1 µM (inactive); in the experiment with PC-3, 41.1 µM (inactive). The GI50 in the experiment on RXF 393 was 46.7 µM (inactive); in the experiment with SF-295, 39.1 µM (inactive); with SK-OV-3, 59.4 µM (inactive); in the experiment on SNB-19, 36.1 µM (inactive); with SW-620, 31.8 µM (inactive); in the experiment with UACC-257, 28.3 µM (inactive). Besides, the GI50 with UO-31 was 30 µM (inactive).
As for `Cc1ccsc1/C=N/Nc1nncc2ccccc12`, the GI50 in the experiment with A498 is > 100 µM (inactive); in the experiment on A549, 96.4 µM (inactive); with COLO 205, > 100 µM (inactive); in the experiment on DU-145, > 100 µM (inactive); in the experiment on HT-29, > 100 µM (inactive); with Hs-578T, > 100 µM (inactive). For the same compound, the GI50 with IGROV-1 is 15.9 µM (inactive); with MCF7 it was 37 µM (inactive); with OVCAR-3 it was > 100 µM (inactive); with OVCAR-4 it was > 100 µM (inactive); in the experiment on PC-3 it was 34.3 µM (inactive); with RXF 393 it was 15.8 µM (inactive). Besides, the GI50 in the experiment on SF-295 is > 100 µM (inactive); in the experiment on SK-OV-3, 70.6 µM (inactive); in the experiment on SNB-19 it was > 100 µM (inactive); in the experiment with SW-620, > 100 µM (inactive); in the experiment on UACC-257 it was > 100 µM (inactive); with UO-31 it was 21.9 µM (inactive).
In the case of `CCCNC(=O)c1cc(OC)c(OC)cc1NC(=O)C12CC3CC(CC(C3)C1)C2`, the GI50 in the experiment on A498 is 15.1 µM (inactive); in the experiment on A549, 17.1 µM (inactive); in the experiment with COLO 205 it was 24.3 µM (inactive); in the experiment on DU-145, 21.2 µM (inactive); in the experiment on HL-60 it was 32.7 µM (inactive); with HT-29 it was 18.2 µM (inactive). Also, the GI50 with Hs-578T is 19.8 µM (inactive); in the experiment with IGROV-1, 22.9 µM (inactive); with MCF7, 22.2 µM (inactive); with NCI-H460, 20.6 µM (inactive); in the experiment with OVCAR-3, 19 µM (inactive); in the experiment with OVCAR-4, 17.6 µM (inactive). Besides, the GI50 with PC-3 is 17.3 µM (inactive); in the experiment on RXF 393, 6.81 µM (inactive); in the experiment with SF-295, 18.7 µM (inactive); in the experiment with SNB-19 it was 16.4 µM (inactive); in the experiment on SW-620, > 100 µM (inactive); in the experiment with UACC-257, 17.6 µM (inactive). Further, the GI50 in the experiment on UO-31 is 16.6 µM (inactive).
`COC(=O)CCCC(=O)C1=NN(c2ccc(Cl)cc2)Cc2ccccc2N1`: the GI50 was 36.1 µM (inactive) in the experiment with A498; 96.4 µM (inactive) in the experiment with A549; 54 µM (inactive) in the experiment on COLO 205; > 100 µM (inactive) in the experiment on DU-145; 98.6 µM (inactive) in the experiment on HT-29; 68.4 µM (inactive) in the experiment with Hs-578T. In addition, the GI50 in the experiment with IGROV-1 is > 100 µM (inactive); with MCF7, 75.9 µM (inactive); with OVCAR-3, 93.8 µM (inactive); with OVCAR-4, 20.7 µM (inactive); with PC-3 it was 91 µM (inactive); in the experiment on RXF 393, 86.1 µM (inactive). Also, the GI50 with SF-295, in the experiment with SK-OV-3, in the experiment with SNB-19, in the experiment with SW-620, in the experiment on UACC-257 and in the experiment on UO-31 was > 100 µM (inactive) throughout.
For `Nc1cc2c(c3ccccc13)C(CCl)CN2C(=O)c1cc2cc(NC(=O)Nc3ccc4[nH]c(C(=O)N5CC(CCl)c6c5cc(N)c5ccccc65)cc4c3)ccc2[nH]1` (stereo not given), the GI50 in the experiment with A498 is 0.197 µM (active); in the experiment on A549 it was 0.0478 µM (active); in the experiment on COLO 205 it was 0.687 µM (active); in the experiment on DU-145, < 0.01 µM (active); in the experiment with HT-29, < 0.0176 µM (active); with Hs-578T, 1.35 µM (inactive). The GI50 in the experiment with IGROV-1 was 0.256 µM (active); in the experiment with MCF7, 0.0284 µM (active); in the experiment on NCI-H460 it was < 0.01 µM (active); in the experiment with OVCAR-3, 0.467 µM (active); in the experiment with OVCAR-4, 1.79 µM (inactive); in the experiment with PC-3, 0.171 µM (active). In addition, the GI50 in the experiment on RXF 393 was 0.0719 µM (active); with SF-295, 0.0404 µM (active); in the experiment with SK-OV-3, 0.506 µM (active); with SNB-19 it was 0.0785 µM (active); in the experiment on SW-620 it was 0.075 µM (active); in the experiment with UACC-257, 1.16 µM (inactive). Besides, in the experiment on UO-31, the GI50 was 0.0559 µM (active).
With `COc1ccc2c(-c3csc(-c4c[nH]c5ccc(Br)cc45)n3)c[nH]c2c1`, the GI50 with A498 was 89.3 µM (inactive); with A549, 91.8 µM (inactive); in the experiment on COLO 205 it was 54.1 µM (inactive); in the experiment on DU-145, > 100 µM (inactive); in the experiment on HT-29, 77.6 µM (inactive); with Hs-578T, 74.1 µM (inactive). In addition, the GI50 in the experiment on IGROV-1 was 81.5 µM (inactive); with MCF7 it was 54.1 µM (inactive); with NCI-H460, 23.2 µM (inactive); with OVCAR-3 it was > 100 µM (inactive); in the experiment on OVCAR-4, 70.5 µM (inactive); in the experiment on PC-3, 10.4 µM (inactive). For the same compound, the GI50 with RXF 393 is 11.9 µM (inactive); with SF-295 it was 73.5 µM (inactive); in the experiment on SNB-19, > 100 µM (inactive); with SW-620 it was > 100 µM (inactive); with UACC-257 it was 88.9 µM (inactive); in the experiment with UO-31 it was > 100 µM (inactive).
Consider `Oc1nc2c(c(-c3cccc(Cl)c3)n1)COC/C2=C\c1cccc(Cl)c1`, for which the GI50 in the experiment on A498, in the experiment with COLO 205, with DU-145, with Hs-578T, with IGROV-1 and in the experiment with MCF7 was > 100 µM (inactive) throughout. The GI50 in the experiment on NCI-H460, in the experiment on OVCAR-3, in the experiment with OVCAR-4, in the experiment with PC-3, with RXF 393 and in the experiment with SF-295 was > 100 µM (inactive) in each case. The GI50 in the experiment on SK-OV-3, with SNB-19, with SW-620, in the experiment on UACC-257 and in the experiment with UO-31 was > 100 µM (inactive) each time.
Take `CCCCCCCCCCCC[C@H](O)[C@H]1CC[C@H]([C@H](O)CCCC[C@H](O)CCCCC[C@@H](O)CC2=C[C@H](C)OC2=O)O1`: the GI50 is 4.58 µM (inactive) in the experiment on A498; 2.34 µM (inactive) in the experiment with A549; 4.21 µM (inactive) with COLO 205; 9.42 µM (inactive) with DU-145; 2.15 µM (inactive) with HL-60; 2.82 µM (inactive) in the experiment with HT-29. In addition, the GI50 is 5.43 µM (inactive) with Hs-578T; 3.98 µM (inactive) with IGROV-1; 1.4 µM (inactive) in the experiment on MCF7; 3.04 µM (inactive) with NCI-H460; 2.19 µM (inactive) in the experiment on OVCAR-3; 17.6 µM (inactive) with OVCAR-4. Besides, the GI50 with PC-3 is 3.1 µM (inactive); with RXF 393 it was 16.6 µM (inactive); with SF-295, 1.63 µM (inactive); in the experiment on SNB-19, 1.13 µM (inactive); with SW-620 it was 2.75 µM (inactive); in the experiment with UACC-257, 0.407 µM (active). For the same compound, the GI50 with UO-31 was 1.5 µM (inactive).
As for `C=C1C/C(=C/C)C(=O)O[C@@H]2CCN3CC=C(COC(=O)[C@]1(C)O)[C@H]23` [SENECIPHYLLINE], the GI50 in the experiment on A498, in the experiment with A549, in the experiment on COLO 205, in the experiment with DU-145, in the experiment on HL-60 and in the experiment on HT-29 was > 100 µM (inactive) in each case. Also, the GI50 is > 100 µM (inactive) in the experiment with Hs-578T; > 100 µM (inactive) in the experiment on IGROV-1; > 100 µM (inactive) in the experiment with MCF7; 84.9 µM (inactive) with NCI-H460; > 100 µM (inactive) with OVCAR-3; > 100 µM (inactive) in the experiment with OVCAR-4. The GI50 with PC-3, in the experiment on SF-295, in the experiment with SK-OV-3, in the experiment on SNB-19, with SW-620 and in the experiment on UACC-257 was > 100 µM (inactive) each time. Moreover, the GI50 with UO-31 is > 100 µM (inactive).
Regarding `Cc1c([C@H](C)[C@@H]2NC[C@@H](C)C[C@H]2O)ccc2c1C[C@H]1[C@H]2CC=C2C[C@@H](O)CC[C@@]21C` [VERATRAMINE], the GI50 is 15.2 µM (inactive) with A498; 16.7 µM (inactive) in the experiment on A549; 14.4 µM (inactive) in the experiment with COLO 205; 27.6 µM (inactive) with DU-145; 13.7 µM (inactive) with HT-29; 20.6 µM (inactive) in the experiment on Hs-578T. In addition, the GI50 with IGROV-1 was 16.1 µM (inactive); in the experiment with MCF7, 15.4 µM (inactive); with NCI-H460, 16.9 µM (inactive); in the experiment with OVCAR-3, 15.6 µM (inactive); with OVCAR-4, 12.6 µM (inactive); with PC-3, 11.5 µM (inactive). Also, the GI50 in the experiment with RXF 393 is 17.5 µM (inactive); in the experiment on SF-295, 12.4 µM (inactive); in the experiment on SK-OV-3 it was 23.8 µM (inactive); in the experiment on SNB-19, 27.8 µM (inactive); with SW-620, 28.6 µM (inactive); in the experiment with UACC-257, 13.2 µM (inactive). Further, the GI50 with UO-31 is 14 µM (inactive).

The values above are taken from ChEMBL document CHEMBL1201862, “PubChem BioAssay data set” (2004).
